For 17 molecules, DC50 and IC50 results are on record in patent publication US20260167623A1 (NIKANG THERAPEUTICS, INC., priority 2022, published 2026).

Assay [1] concerns the target T1, CDK2 (Homo sapiens, UniProt P24941).
T1 construct: High-Throughput Measurement of Cellular Endogenous CDK2; endogenous in cells; host or cells: OVCAR3
Kind of assay: High-throughput HTRF measurement of cellular endogenous CDK2 level (degradation, DC50/Dmax) in OVCAR3 cells, 6 h. Type of assay: cell-based. Particulars: 6 h compound treatment, HTRF total CDK2, read-out: DC50_OVCAR3_6h. The method, boiled down:
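DC50 and Dmax were derived by four-parameter logistic fit of the […] TR-FRET ratio, scaled between DMSO (0% degradation) and lysis buffer (100%) controls. The ratio came from an HTRF total-CDK2 sandwich immunoassay on lysates of OVCAR3 cells given 0.03–1,000 nM compound for 6 hours.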

The target of assay [2] is T1, CDK2. Put plainly: Inhibition of CDK2: phospho-Rb (S807/811) HTRF measurement in OVCAR3 cells, 24 h. Format: cell-based. The note with it: 24 h compound treatment, read-out: pRB_OVCAR3_24h. The method, boiled down: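 IC50 came from a four-parameter fit of DMSO-normalized TR-FRET ratios (665/620 nm) reporting phospho-Rb S807/811. Lysates were taken from OVCAR3 cultures treated 24 h with compound (0.3 to 10,000 nM) and incubated 4 h at room temperature with the antibody pair.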

Take `O=C1CCC(N2Cc3cc(C4CCN(CC5CCN(c6cccc(S(=O)(=O)N7CCC(Nc8ncc(C(F)(F)F)cn8)CC7)c6)CC5)CC4)c(F)cc3C2=O)C(=O)N1` (stereo not shown) [Example 119, 3-(6-fluoro-1-oxo-5-(1-((1-(3-((4-((5-(trifluoromethyl)pyrimidin-2-yl)amino)-piperidin-1-yl)sulfonyl)phenyl)piperidin-4-yl)methyl)piperidin-4-yl)isoindolin-2-yl)piperidine-2,6-dione]: on CDK2 [1], the DC50 was 0.001 to 0.01 µM. Further, the IC50 on CDK2 [2] was in the range of 0.001 to 0.1 µM.
Taken in the same sequence, the figures for `Cn1nc(N2CCC(=O)NC2=O)c2ccc(C3CCN(CC4CCN(c5cc(F)cc(S(=O)(=O)N6CCC(Nc7ncc(Cl)cn7)CC6)c5)CC4)CC3)cc21` [Example 147, 1-(6-(1-((1-(3-((4-((5-chloropyrimidin-2-yl)amino)piperidin-1-yl)sulfonyl)-5-fluorophenyl)piperidin-4-yl)methyl)piperidin-4-yl)-1-methyl-1H-indazol-3-yl)dihydropyrimidine-2,4(1H,3H)-dione] were 0.001 to 0.01 µM and 0.001 to 0.1 µM.
In the case of `Cn1nc(N2CCC(=O)NC2=O)c2ccc(C3CCN(CC4CCN(c5cc(S(=O)(=O)N6CCC(Nc7ncc(Cl)cn7)CC6)ccc5C#N)CC4)CC3)cc21` [Example 148, 4-((4-((5-chloropyrimidin-2-yl)amino)piperidin-1-yl)sulfonyl)-2-(4-((4-(3-(2,4-dioxotetrahydropyrimidin-1(2H)-yl)-1-methyl-1H-indazol-6-yl)piperidin-1-yl)methyl)piperidin-1-yl)benzonitrile], the DC50 at CDK2 [1] was in the range of 0.01 to 0.1 µM. The IC50 on CDK2 [2] was in the range of 0.001 to 0.1 µM.
For `Cn1nc(N2CCC(=O)NC2=O)c2ccc(C3CCN(CC4CCN(c5cc(F)cc(S(=O)(=O)N6CCC(Nc7ncc(C(F)(F)F)cn7)CC6)c5)CC4)CC3)cc21` [Example 149, 1-(6-(1-((1-(3-fluoro-5-((4-((5-(trifluoromethyl)pyrimidin-2-yl)amino)piperidin-1-yl)sulfonyl)phenyl)piperidin-4-yl)methyl)piperidin-4-yl)-1-methyl-1H-indazol-3-yl)dihydropyrimidine-2,4(1H,3H)-dione], in that order: 0.001 to 0.01 µM and 0.001 to 0.1 µM.
As for `Cn1nc(N2CCC(=O)NC2=O)c2ccc(C3CCN(CC4CCN(c5cc(S(=O)(=O)N6CCC(Nc7ncc(Cl)cn7)CC6)ccc5C#N)CC4)CC3)c(F)c21` [Example 150, 4-((4-((5-chloropyrimidin-2-yl)amino)piperidin-1-yl)sulfonyl)-2-(4-((4-(3-(2,4-dioxotetrahydropyrimidin-1(2H)-yl)-7-fluoro-1-methyl-1H-indazol-6-yl)piperidin-1-yl)methyl)piperidin-1-yl)benzonitrile], on CDK2 [1], the DC50 fell in the range of 0.01 to 0.1 µM. The IC50 on CDK2 [2] fell in the range of 0.001 to 0.1 µM.
`Cn1c(=O)n(C2CCC(=O)NC2=O)c2cccc(C3CCN(CC4CCN(c5cc(S(=O)(=O)N6CCC(Nc7ncc(Cl)cn7)CC6)ccc5C#N)CC4)CC3)c21` (stereo not shown) [Example 151, 4-((4-((5-chloropyrimidin-2-yl)amino)piperidin-1-yl)sulfonyl)-2-(4-((4-(1-(2,6-dioxopiperidin-3-yl)-3-methyl-2-oxo-2,3-dihydro-1H-benzo[d]imidazol-4-yl)piperidin-1-yl)methyl)piperidin-1-yl)benzonitrile]: at CDK2 [1], the DC50 was in the range of 0.01 to 0.1 µM. For the same molecule, the IC50 at CDK2 [2] lay in the range of 0.001 to 0.1 µM.
Taken in the same sequence, the figures for `Cn1nc(N2CCC(=O)NC2=O)c2ccc(C3CCN(CC4CCN(c5cc(S(=O)(=O)N6CCC(Nc7ncc(C(F)(F)F)cn7)CC6)ccc5C#N)CC4)CC3)cc21` [Example 152, 2-(4-((4-(3-(2,4-dioxotetrahydropyrimidin-1(2H)-yl)-1-methyl-1H-indazol-6-yl)piperidin-1-yl)methyl)piperidin-1-yl)-4-((4-((5-(trifluoromethyl)pyrimidin-2-yl)amino)piperidin-1-yl)sulfonyl)benzonitrile] were 0.001 to 0.01 µM and 0.001 to 0.1 µM.
For `Cn1nc(N2CCC(=O)NC2=O)c2cc(F)c(C3CCN(CC4CCN(c5cc(S(=O)(=O)N6CCC(Nc7ncc(Cl)cn7)CC6)ccc5C#N)CC4)CC3)cc21` [Example 153, 4-((4-((5-chloropyrimidin-2-yl)amino)piperidin-1-yl)sulfonyl)-2-(4-((4-(3-(2,4-dioxotetrahydropyrimidin-1(2H)-yl)-5-fluoro-1-methyl-1H-indazol-6-yl)piperidin-1-yl)methyl)piperidin-1-yl)benzonitrile], in that order: 0.01 to 0.1 µM and 0.001 to 0.1 µM.
In the case of `Cn1nc(N2CCC(=O)NC2=O)c2ccc(C3CCN(CC4(O)CCN(c5cccc(S(=O)(=O)N6CCC(Nc7ncc(Cl)cn7)CC6)c5)CC4)CC3)cc21` [Example 162, 1-(6-(1-((1-(3-((4-((5-chloropyrimidin-2-yl)amino)piperidin-1-yl)sulfonyl)phenyl)-4-hydroxypiperidin-4-yl)methyl)piperidin-4-yl)-1-methyl-1H-indazol-3-yl)dihydropyrimidine-2,4(1H,3H)-dione], the DC50 at CDK2 [1] was in the range of 0.001 to 0.01 µM. Further, the IC50 at CDK2 [2] was 0.001 to 0.1 µM.
For `Cn1nc(N2CCC(=O)NC2=O)c2ccc(C3CCN(CC4CCN(c5ccc(S(=O)(=O)N6CCC(Nc7ncc(C(F)(F)F)cn7)CC6)cc5)CC4)CC3)cc21` [Example 165, 1-(1-methyl-6-(1-((1-(4-((4-((5-(trifluoromethyl)pyrimidin-2-yl)amino)piperidin-1-yl)sulfonyl)phenyl)piperidin-4-yl)methyl)piperidin-4-yl)-1H-indazol-3-yl)dihydropyrimidine-2,4(1H,3H)-dione], in that order: 0.01 to 0.1 µM and 0.001 to 0.1 µM.
For `O=C1CCC(n2c(=O)oc3c(C4CCN(CC5CCN(c6cccc(S(=O)(=O)N7CCC(Nc8ncc(Cl)cn8)CC7)c6)CC5)CC4)cccc32)C(=O)N1` (stereo not shown) [Example 168, 3-(7-(1-((1-(3-((4-((5-chloropyrimidin-2-yl)amino)piperidin-1-yl)sulfonyl)phenyl)piperidin-4-yl)methyl)piperidin-4-yl)-2-oxobenzo[d]oxazol-3(2H)-yl)piperidine-2,6-dione], the DC50 on CDK2 [1] is 0.01 to 0.1 µM. Further, the IC50 at CDK2 [2] was in the range of 0.001 to 0.1 µM.
Regarding `Cn1c(=O)n(C2CCC(=O)NC2=O)c2cccc(C3CCN(CC4CCN(c5cc(F)cc(S(=O)(=O)N6CCC(Nc7ncc(OC(F)F)cn7)CC6)c5)CC4)CC3)c21` (stereo not shown) [Example 174, 3-(4-(1-((1-(3-((4-((5-(difluoromethoxy)pyrimidin-2-yl)amino)piperidin-1-yl)sulfonyl)-5-fluorophenyl)piperidin-4-yl)methyl)piperidin-4-yl)-3-methyl-2-oxo-2,3-dihydro-1H-benzo[d]imidazol-1-yl)piperidine-2,6-dione], the DC50 on CDK2 [1] was 0.001 to 0.01 µM. Also, the IC50 at CDK2 [2] lay in the range of 0.001 to 0.1 µM.
Taken in the same sequence, the figures for `Cn1nc(N2CCC(=O)NC2=O)c2ccc(C3CCN(CC4CCN(c5cc(F)cc(S(=O)(=O)N6CCC(Nc7ncc(OC(F)F)cn7)CC6)c5)CC4)CC3)cc21` [Example 175, 1-(6-(1-((1-(3-((4-((5-(difluoromethoxy)pyrimidin-2-yl)amino)piperidin-1-yl)sulfonyl)-5-fluorophenyl)piperidin-4-yl)methyl)piperidin-4-yl)-1-methyl-1H-indazol-3-yl)dihydropyrimidine-2,4(1H,3H)-dione] were 0.01 to 0.1 µM and 0.1 to 0.5 µM.
Taken in the same sequence, the figures for `Cn1c(=O)n(C2CCC(=O)NC2=O)c2ccc(C3CCN(CC4CCN(c5cccc(S(=O)(=O)N6CCC(Nc7ncc(C(F)(F)F)cn7)CC6)c5)CC4)CC3)cc21` (stereo not shown) [Example 177, 3-(3-methyl-2-oxo-5-(1-((1-(3-((4-((5-(trifluoromethyl)pyrimidin-2-yl)amino)piperidin-1-yl)sulfonyl)phenyl)piperidin-4-yl)methyl)piperidin-4-yl)-2,3-dihydro-1H-benzo[d]imidazol-1-yl)piperidine-2,6-dione] were 0.001 to 0.01 µM and 0.001 to 0.1 µM.
Take `Cn1c(=O)n(C2CCC(=O)NC2=O)c2cccc(C3CCN(CC4CCN(c5cc(F)cc(S(=O)(=O)N6CCC(Nc7ncc(Cl)cn7)CC6)c5)CC4)CC3)c21` (stereo not shown) [Example 180, 3-(4-(1-((1-(3-((4-((5-chloropyrimidin-2-yl)amino)piperidin-1-yl)sulfonyl)-5-fluorophenyl)piperidin-4-yl)methyl)piperidin-4-yl)-3-methyl-2-oxo-2,3-dihydro-1H-benzo[d]imidazol-1-yl)piperidine-2,6-dione]: the DC50 on CDK2 [1] lay in the range of 0.01 to 0.1 µM. Further, at CDK2 [2], the IC50 lay within 0.1 to 0.5 µM.
For `Cn1c(=O)n(C2CCC(=O)NC2=O)c2cccc(C3CCN(CC4CCN(c5cc(S(=O)(=O)N6CCC(Nc7ncc(C(F)(F)F)cn7)CC6)ccc5C#N)CC4)CC3)c21` (stereo not shown) [Example 181, 2-(4-((4-(1-(2,6-dioxopiperidin-3-yl)-3-methyl-2-oxo-2,3-dihydro-1H-benzo[d]imidazol-4-yl)piperidin-1-yl)methyl)piperidin-1-yl)-4-((4-((5-(trifluoromethyl)pyrimidin-2-yl)amino)piperidin-1-yl)sulfonyl)benzonitrile], in that order: 0.001 to 0.01 µM and 0.001 to 0.1 µM.
For `Cn1c(=O)n(C2CCC(=O)NC2=O)c2cccc(C3CCN(Cc4cc(F)cc(S(=O)(=O)N5CCC(Nc6ncc(OC(F)F)cn6)CC5)c4)CC3)c21` (stereo not shown) [Example 184, 3-(4-(1-(3-((4-((5-(difluoromethoxy)pyrimidin-2-yl)amino)piperidin-1-yl)sulfonyl)-5-fluorobenzyl)piperidin-4-yl)-3-methyl-2-oxo-2,3-dihydro-1H-benzo[d]imidazol-1-yl)piperidine-2,6-dione], in that order: 0.001 to 0.01 µM and 0.001 to 0.1 µM.
